The text below walks through data of patent US5770083A, “Separation of polar compounds by affinity countercurrent chromatography” (The United States of America as represented by the …, priority 1995, dated 1998).

Read-outs that look alike come from different tables or passages of the source.

A short description of series [1]: Partition coefficient (K) in two-phase solvent systems, test tube procedure. In kind it is physicochemical. As for the experimental part: Each solvent system was prepared by equilibrating the solvent mixture, excluding the ligand, in a separatory funnel at room temperature. After two clear layers were formed, the two phases were separated. Then, a desired amount of the ligand was added to the organic phase which was then used as the stationary phase. The aqueous phase was used as the mobile phase.
Partition coefficients were measured using the standard test tube procedure as follows: The two-phase solvent system was prepared as described above. An aliquot of 2 mL of each phase, a total of 4 mL, was delivered in a test tube (13 mm ID×100 mm length) where a desired amount of the ligand and 1-2 mg of sample were added. Then, the test tube was stoppered and the contents were mixed until the resolved sample was completely equilibrated between two phases. Using a vortex mixer, it required 10 successive applications at a few second intervals after the sample was dissolved in the solvent. The tube was stand still until clear two layers were formed. If necessary, the tubes were centrifuged for 2-3 min at 1000×g to accelerate the phase separation. An aliquot of each phase, usually 100 μl, was separately diluted with 2 mL of a suitable diluent, usually methanol, and the absorbance determined with a spectrophotometer, (Zeiss, Hanover, Md., USA) at a desired wavelength. The partition coefficient for each component was obtained by the absorbance of the upper phase divided by that of the lower phase. […]

The conditions of series [2]: n-butanol/water two-phase solvent systems, no ligand; stated as background; cited from earlier work.
Where [3] appears, read: methyl t-butyl ether / 0.1 M KH2PO4 (1:1), ligand DEHPA 10%, upper/lower phase.

On to `N[C@@H](Cc1ccc(O)c(O)c1)C(=O)O` (racemic) [DOPA, 3,4-dihydroxyphenylalanine], for which the “Partition Coefficient (K)” value in series [1] is 0.01. In addition, the “K value (in words)” value in series [1] (Dopa in zwitterionic form, pH-zone-refining run, Example 5) is reported as “extremely low K value”.

For `CCCCC(CC)COP(=O)(O)OCC(CC)CCCC` (stereo not shown) [DEHPA, di-(2-ethylhexyl)phosphoric acid], the “K value of the ligand” value in series [1] (ligand almost unilaterally distributed into the organic phase, MBE/aqueous systems) is on record as more than 100.

In the case of `CNC[C@H](O)c1ccc(O)c(O)c1` [Epinephrine, epinephrine], the “partition (in words)” value in series [2] is reported as “almost exclusively into the aqueous phase”. Besides, in series [1] (methyl t-butyl ether / 0.1 M NH4OAc and 0.5 M HCl (1:1), ligand DEHPA 1.5%, upper/lower phase), the “Partition Coefficient (K)” value was 0.4. The “Partition Coefficient” value is listed as 0.24 in series [1] (solvent system I: nButanol/H2O); 0.13 in series [1] (solvent system II: nButanol/0.1M NH4OAc); 0.06 in series [1] (solvent system III: MBE/H2O); 0.16 in series [1] (solvent system IV: MBE/0.1M NH4OAc); 5.83 in series [1] (solvent system V: MBE/DEHPA/0.1M NH4OAc (9:1:10)); 0.01 in series [1] (solvent system VI: MBE/DEHPA/0.05M HCl (9:1:10)). In addition, the “Partition Coefficient” value in series [1] (solvent system VII: MBE/DEHPA/0.1M NH4OAc & 0.05M HCl (9:1:10)) came out at 1.42.

On to `COc1cc(C(O)CN)ccc1O` (stereo not shown) [Normetanephrine, normetanephrine], for which, in series [1], the “Partition Coefficient (K)” value was found to be 0.5.

`NCCc1ccc(O)cc1` [Tyramine, tyramine]: in series [1], the “Partition Coefficient (K)” value stood at 1.7.

Turning to Ala--Tyr, in series [1] (setting [3]), the “Partition Coefficient (K)” value was 0.5.

Take Gly--Tyr: the “Partition Coefficient (K)” value in series [1] (setting [3]) is reported as 0.1.

For the compound Leu--Tyr, the “Partition Coefficient (K)” value in series [1] (setting [3]) turned out to be 10.

As to Tyr--Ala, the “Partition Coefficient (K)” value in series [1] (setting [3]) turned out to be 0.8.

On to Tyr--Gly, for which the “Partition Coefficient (K)” value in series [1] (setting [3]) came to 0.2.

In the case of Tyr--Leu, the “Partition Coefficient (K)” value in series [1] (setting [3]) was 18.

In the case of Tyr--Val, in series [1] (setting [3]), the “Partition Coefficient (K)” value is 4.9.

Turning to Val--Tyr, the “Partition Coefficient (K)” value in series [1] (setting [3]) was found to be 2.8.
